Source: patent US5681826A, “Saccharide composition with reduced reducibility, and preparation and uses thereof” (Kabushiki Kaisha Hayashibara Seibutsu Kagaku Kenkyujo, priority 1994, dated 1997)
“Also recorded” adds a separate entry of the source.

Legend:
[1] = Maillard reaction with glycine, absorbance at 480 nm; format: physicochemical; settings: for Coloration degree (480 nm): one % glycine, 10% saccharide, pH 7.0, 100°C., 90 min, 1-cm cell
Method: A solution, containing one % glycine and 10% of a saccharide preparation PI, P II, P III, P IV or P V in Experiment 4 and 50 mM phosphate buffer (pH 7.0), was kept at 100° C. for 90 min, followed by cooling the resultant solution, and determining for absorbance at a wave length of 480 nm in a 1-cm cell. As a control, maltotriose, maltotetraose, maltopentaose, maltohexaose and maltoheptaose, as a material for the saccharide preparations, were similarly treated as above, and measured for absorbance at a wave length of 480 nm.
A solution, containing one % of glycine, 10% of a high-purity trehalose preparation with a purity of 99.5%, d.s.b., obtained by the method in Experiment 17, and 50 mM phosphate buffer (pH 7.0), was kept at 100° C. for 90 min, followed by cooling the resultant solution and determining the absorbance at a wave length of 480 nm in a 1-cm cell. As a control, glucose and maltose were similarly treated as above, and the resultants were determined for absorbance at a wave length of 480 nm.

[2] = Hydrolysis by rat intestinal acetone powder; format: in vitro ADME; settings: pH 6.0, 37°C., 18 hours
Method: (§1) The enzymatic reaction with the α-amylase was as follows: Dissolve 10 mg of a substrate in one ml of 50 mM phosphate buffer (pH 6.9), mix the resultant solution with one unit of the α-amylase, and incubate the resultant mixture at 37° C. for 18 hours. The enzymatic reaction with the α-glucosidase was conducted under the same conditions as in the case of α-amylase except that 50 mM acetate buffer (pH 4.0) was used as a buffer. The enzymatic reaction using the rat intestinal acetone powder was carried out under the same conditions as in the case of α-amylase except that 50 mM maleate buffer (pH 6.0) was used as a buffer. The saccharide compositions obtained by the α-amylase, α-glucosidase and rat intestinal acetone powder are respectively in Tables 6, 7 and 8.

glucoamylase = experiment: Enzymatic hydrolysis by glucoamylase; format: biochemical; settings: for Glucose / Molecular ratio (Glucose/Trehalose) / Trehalose: one unit glucoamylase, pH 4.5, 40°C., 6 hours
Method: Fifty mg aliquots of non-reducing saccharide preparations P I, P II, P III, P IV and P V in Experiment 4 were respectively dissolved in one ml of 50 mM acetate buffer (pH 4.5), admixed with one unit of glucoamylase commercialized by Seikagaku-Kogyo Co., Ltd., Tokyo, Japan, to effect enzymatic hydrolysis at 40° C. for 6 hours. HPLC analysis only detected glucose and trehalose in all resultant mixtures. The percentages and the molecular ratios of glucose to trehalose in each saccharide are in Table 5.

[3] = target: T1, trehalose-releasing enzyme (Rhizobium sp. M-11, UniProt Q53238); experiment: Action of trehalose-releasing enzyme on α-glycosyltrehalose and maltooligosaccharides (Table 13); format: biochemical; settings: 20% substrate, 2 units/g, 40°C., pH 7.0, 48 hours; label = substrate
T1 construct: M-11 culture
T1 sequence (Q53238 1-596): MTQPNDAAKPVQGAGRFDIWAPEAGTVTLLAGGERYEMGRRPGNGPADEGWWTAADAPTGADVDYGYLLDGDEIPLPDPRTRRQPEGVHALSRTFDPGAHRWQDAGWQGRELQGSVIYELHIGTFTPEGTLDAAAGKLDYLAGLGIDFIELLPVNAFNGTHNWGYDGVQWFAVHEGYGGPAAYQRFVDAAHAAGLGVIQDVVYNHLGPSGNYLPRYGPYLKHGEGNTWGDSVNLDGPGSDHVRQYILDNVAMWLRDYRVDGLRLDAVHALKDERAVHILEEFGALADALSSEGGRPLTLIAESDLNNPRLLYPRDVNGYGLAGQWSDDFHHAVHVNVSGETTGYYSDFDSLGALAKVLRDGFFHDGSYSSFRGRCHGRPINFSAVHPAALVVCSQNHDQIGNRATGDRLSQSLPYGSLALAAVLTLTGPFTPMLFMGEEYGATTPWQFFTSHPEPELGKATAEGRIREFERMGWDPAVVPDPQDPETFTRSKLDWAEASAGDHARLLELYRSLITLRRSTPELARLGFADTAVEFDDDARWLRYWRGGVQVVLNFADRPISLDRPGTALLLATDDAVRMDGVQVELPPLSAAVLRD
Method: An aqueous solution containing 20%, d.s.b., of one of the above 5 non-reducing saccharide preparations, namely α-glycosyltrehalose preparations, was prepared, followed by mixing it with 2 units/g substrate, d.s.b., of the purified trehalose-releasing enzyme obtained in Experiment 15, and subjecting the resultant to an enzymatic reaction at 40° C. and pH 7.0 for 48 hours. The resultant each reaction mixture was desalted, and analyzed for saccharide composition on HPLC using "WAKOBEADS WB-T-330 column", a column of Wako Pure Chemical Industries Ltd., Tokyo, Japan. As a control, a fresh preparation of the same trehalose-releasing enzyme was allowed to act on maltotriose, maltotetraose, maltopentaose, maltohexaose or maltoheptaose, and the resultant each reaction mixture was analyzed for saccharide composition on HPLC.

β-amylase = experiment: Hydrolysis by β-amylase; format: biochemical
α-amylase = experiment: Hydrolysis by α-amylase derived from pig pancreas; format: in vitro ADME; settings: for Saccharide composition of hydrolysate by α-amylase: G1 (glucose) / Saccharide composition of hydrolysate by α-amylase: G2 (maltose) / Saccharide composition of hydrolysate by α-amylase: G3 (maltotriose) / Saccharide composition of hydrolysate by α-amylase: P I / Saccharide composition of hydrolysate by α-amylase: P II: one unit, pH 6.9, 37°C., 18 hours
Method: as §1

[4] = Reducing power on the Somogyi-Nelson's method expressed by DE; format: physicochemical; settings: d.s.b.
Method: The reducing powders of these novel high-purity saccharides were determined on the Somogyi-Nelson's method and expressed by DE.

α-glucosidase = experiment: Hydrolysis by α-glucosidase derived from rice; format: biochemical; settings: pH 4.0, 37°C., 18 hours
Method: as §1

mice = experiment: Acute toxicity test (Experiment 8); settings: oral, highest possible doses
Description: (§2) By using 7-week old dd-strain mice, the non-reducing saccharide preparation P I, P II, P III, P IV or P V was orally administered to the mice for acute toxicity test.

in vivo = settings: mouse, in vivo, po
Description: as §2

[5] = tested on: trehalose derived from pig kidney; experiment: Hydrolysis of trehalose by enzyme derived from pig kidney; format: biochemical; settings: pH 5.7, 37°C., 18 hours (Experiment 7)
Method: To purify trehalose in each reaction mixture, it was subjected to column chromatography using a column packed with "XT-1016", a strong-acid cation exchange resin in Na^+ -form commercialized by Tokyo Organic Chemical Industries, Ltd., Tokyo, Japan, followed by recovering fractions containing 97% or more of trehalose. The fractions were pooled and concentrated into an about 65% solution which was then allowed to stand at 25° C. for 2 days to crystallize trehalose into hydrous crystalline trehalose, followed by separating and drying it in vacuo to obtain a high-purity trehalose preparation with a purity of 99% or more, d.s.b. The yields of trehalose from glucosyltrehalose, maltosyltrehalose, maltotriosyltrehalose, maltotetraosyltrehalose and maltopentaosyltrehalose used as a substrate were respectively 9.5%, 14.9%, 16.0%, 18.5% and 17.7%, d.s.b. The high-purity trehalose preparations and a commercially available trehalose specimen as a standard were studied for melting point, heat of fusion, specific rotation, infrared absorption spectrum, powdery X-ray diffraction pattern, and readiness of hydrolysis by a […] derived from pig kidney, commercialized by Sigma Chemical Co., St. Louise, USA.

[6] = Utilization test in vivo, oral administration to healthy male volunteers; design: species or system human; settings: 30 g oral
Method: In accordance with the method as reported by H. Atsuji et al. in "Rinsho-Eiyo", Vol.41, No.2, pp.200-208 (1972), 30 g of a high-purity trehalose preparation with a purity of 99.5%, d.s.b., obtained by the method in Experiment 17 was dissolved in water into a 20 w/v % aqueous solution which was then orally administered to 6 healthy male volunteers. The volunteers were collected their blood at a prescribed time interval, and each collected blood was assayed for blood sugar- and insulin-levels. As a control Glucose was used.

| SMILES | Coloration degree relative to corresponding material maltooligosaccharides [1] | Coloration degree (480 nm) [1] | Saccharide composition of hydrolysate by rat intestinal acetone powder: Glucose [2] [%] | Saccharide composition of hydrolysate by rat intestinal acetone powder: Other saccharides [2] [%] | Saccharide composition of hydrolysate by rat intestinal acetone powder: Trehalose [2] [%] | Hydrolysis by glucoamylase (glucoamylase) | Glucose (glucoamylase) [%] | Molecular ratio (Glucose/Trehalose) (glucoamylase) | Trehalose (glucoamylase) [%] | Percentage of reducing saccharide released (glucose, maltose, maltotriose, maltotetraose or maltopentaose) [3] [%] | Percentage of trehalose released [3] [%] | Hydrolysis by β-amylase (β-amylase) | Saccharide composition of hydrolysate by α-amylase: G1 (glucose) (α-amylase) | Saccharide composition of hydrolysate by α-amylase: G2 (maltose) (α-amylase) | Saccharide composition of hydrolysate by α-amylase: G3 (maltotriose) (α-amylase) | Saccharide composition of hydrolysate by α-amylase: P I (α-amylase) | Saccharide composition of hydrolysate by α-amylase: P II (α-amylase) | DE (reducing power) [4] | Saccharide composition of hydrolysate by α-glucosidase: Glucose (α-glucosidase) [%] | Saccharide composition of hydrolysate by α-glucosidase: Other saccharides (α-glucosidase) [%] | further results |
| --- | --- | --- | --- | --- | --- | --- | --- | --- | --- | --- | --- | --- | --- | --- | --- | --- | --- | --- | --- | --- | --- |
| OC[C@H]1O[C@H](O[C@H]2O[C@H](CO)[C@@H](O[C@H]3O[C@H](CO)[C@@H](O[C@H]4O[C@H](CO)[C@@H](O[C@H]5O[C@H](CO)[C@@H](O[C@H]6O[C@H](CO)[C@@H](O)[C@H](O)[C@H]6O)[C@H](O)[C@H]5O)[C@H](O)[C@H]4O)[C@H](O)[C@H]3O)[C@H](O)[C@H]2O)[C@H](O)[C@@H](O)[C@@H]1O [P IV, α-maltotetraosyltrehalose] | 3-6% | 0.016 | 68.8 | 0.4 | 30.8 | hydrolyzed into 4 glucose molecules and one trehalose molecule | 68.3 | 4.09 | 31.7 | 65.5 | 34.2 | one maltose molecule and one P II molecule | 1.6 | 7.5 | 40.4 | 47.2 | 3.3 | 0.27 | 69.5 | 0.3 | Hydrolysis by α-amylase (α-amylase): hydrolyzed by the α-amylase into lower molecular weight oligosaccharides; Saccharide composition of hydrolysate by α-glucosidase: Trehalose (α-glucosidase): 30.2%; Mortality (mice): no mouse died; LD50 (in vivo): ≥ 50000 mg/kg |
| OC[C@H]1O[C@H](O[C@H]2O[C@H](CO)[C@@H](O[C@H]3O[C@H](CO)[C@@H](O[C@H]4O[C@H](CO)[C@@H](O[C@H]5O[C@H](CO)[C@@H](O[C@H]6O[C@H](CO)[C@@H](O[C@H]7O[C@H](CO)[C@@H](O)[C@H](O)[C@H]7O)[C@H](O)[C@H]6O)[C@H](O)[C@H]5O)[C@H](O)[C@H]4O)[C@H](O)[C@H]3O)[C@H](O)[C@H]2O)[C@H](O)[C@@H](O)[C@@H]1O [P V, α-maltopentaosyltrehalose] | 3-6% | 0.015 | 73.4 | 0.1 | 26.5 | hydrolyzed into 5 glucose molecules and one trehalose molecule | 72.9 | 5.11 | 27.1 | 70.6 | 29.1 | 2 maltose molecules and one P I molecule | 1.0 | 8.6 | 35.3 | 10.2 | 44.9 | 0.23 | 71.4 | 0.3 | Saccharide composition of hydrolysate by α-glucosidase: Trehalose (α-glucosidase): 28.3%; Mortality (mice): no mouse died; LD50 (in vivo): ≥ 50000 mg/kg |
| OC[C@H]1O[C@H](O[C@H]2O[C@H](CO)[C@@H](O)[C@H](O)[C@H]2O)[C@H](O)[C@@H](O)[C@@H]1O [Trehalose, α,α-trehalose] | – | 0.006 | – | – | – | – | – | – | – | – | – | – | – | – | – | – | – | – | – | – | Coloration degree relative to glucose or maltose [1]: 0.4-0.6%; Maillard reaction [1]: substantially free from the maillard reaction; Hydrolysis to glucose by pig kidney enzyme [5]: hydrolyzed by trehalose into glucose molecules; also recorded: decomposed into glucose molecules; Time of maximum blood sugar level ([6]; 20 w/v % aqueous solution): 0.5 to 1 h; Time of maximum insulin level ([6]; 20 w/v % aqueous solution): 0.5 to 1 h; Utilization by the body ([6]; control glucose): readily assimilated, absorbed, metabolized and utilized by the body as an energy source |
